Key:
[1] = Cytotoxicity against cat CRFK cells assessed as cell viability at 10 uM after 24 hrs by MTT assay; type: cell-based, Felis catus; conditions: read-out: Activity
[2] = Therapeutic index, ratio of CC50 for cat FL-4 cells to EC50 for Feline immunodeficiency virus infected in cat FL-4 cells; type: cell-based; conditions: read-out: Ratio CC50/EC50
[3] = Cytotoxicity against IL2-independent cat FL-4 cells assessed as reduction in cell viability after 7 days by MTT assay; type: cell-based, Felis catus; conditions: IL2-independent FL-4 cells
[4] = system: Feline immunodeficiency virus; assay: Antiviral activity against Feline immunodeficiency virus infected in cat FL-4 cells assessed as inhibition of viral replication after 7 days by quantitative RT-PCR analysis; type: functional, organism-based; conditions: FL-4, 168 h

Row | SMILES | viability at 24 h, 10 µM [1] [%] | selectivity ratio [2] | CC50 at 168 h [3] [µM] | EC50 [4] [nM]
1 | CC(C)(C)n1cc2c(c1)SSc1cn(C(C)(C)C)cc1SS2 | > 100 | > 6.9 | > 100 | 14500
2 | c1c2c(cc3c1SSc1cc4c(cc1SS3)OCCO4)OCCO2 | 91.1 | > 1450 | > 100 | 68.9
3 | Cc1nnc(C(=O)NC(C)(C)c2nc(C(=O)NCc3ccc(F)cc3)c(O)c(=O)n2C)o1 [RALTEGRAVIR] | > 100 | > 10000 | > 100 | –
4 | Cn1c2c(c3ccccc31)SSc1c(c3ccccc3n1C)SS2 | > 100 | > 2330 | > 100 | 42.9
5 | Cn1c(Cl)c2c(c1Cl)SSc1c(c(Cl)n(C)c1Cl)SS2 | > 100 | > 489 | > 100 | 204
6 | c1c2c(cc3c1SSc1cc4c(cc1SS3)OCO4)OCO2 | 77 | 62.1 | 5.79 | 93.2
7 | CCn1c(Cl)c2c(c1Cl)SSc1c(c(Cl)n(CC)c1Cl)SS2 | > 100 | 1 | > 100 | > 100000
8 | Cc1cn([C@H]2C[C@H](N=[N+]=[N-])[C@@H](CO)O2)c(=O)[nH]c1=O [ZIDOVUDINE] | > 100 | > 18.8 | > 100 | –
9 | CCn1c(C)c2c(c1C)SSc1c(c(C)n(CC)c1C)SS2 | > 100 | 1.6 | > 100 | 60700
10 | CCN(CC)c1sc(N(CC)CC)c2c1SSc1c(N(CC)CC)sc(N(CC)CC)c1SS2 | > 100 | 1 | > 100 | > 100000
11 | Cc1c2c(c(C)n1Cc1ccccc1)SSc1c(c(C)n(Cc3ccccc3)c1C)SS2 | > 100 | 18.9 | 58.2 | 3080
12 | COc1cc2c(cc1OC)SSc1cc(OC)c(OC)cc1SS2 | 75.3 | > 3240 | > 100 | 30.9
